The target in one assay is T1, PPARα-LBD (Homo sapiens, UniProt Q07869).
T1 sequence (Q07869 200-468): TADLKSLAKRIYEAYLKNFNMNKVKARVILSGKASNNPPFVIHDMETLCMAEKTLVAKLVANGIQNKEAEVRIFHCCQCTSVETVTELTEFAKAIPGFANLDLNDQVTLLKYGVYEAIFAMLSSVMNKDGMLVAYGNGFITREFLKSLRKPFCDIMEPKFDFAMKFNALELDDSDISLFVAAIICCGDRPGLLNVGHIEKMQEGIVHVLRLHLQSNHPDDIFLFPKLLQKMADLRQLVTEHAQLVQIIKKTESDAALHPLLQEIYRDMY
Description: TR-FRET SRC1 coactivator recruitment assay. The format is biochemical. The conditions noted are these: for EC50: TR-FRET, SRC1 peptide, read-out: EC50, SRC1 recruitment to PPARα-LBD. Details: Human PPARα-LBD (amino acids 200–468); made in house; host or cells: Rosetta (DE3) pLysS (E. coli). Here is the method:
(§1) Subsequently, 5 µL of 4 nM Eu-W1024-labeled anti-6×His antibody/80 nM ULight-Streptavidin (PerkinElmer) was added to each well, and the microplate was incubated in the dark for 2 h, at room temperature. […] The nonlinear fitting and the calculation of the EC50 were performed using the Prism 9 software (GraphPad, San Diego, CA, USA).
(§2) The ligand-bound activated forms of PPARs are stabilized by associations with specific coactivators, thereby enabling the regulation of specific gene expression.
(§3) Figure 2 TR-FRET-based LBD-mediated human PPARα/δ/γ coactivator recruitment assay. […] Data are presented as the mean ± SE of three or four independent experiments with duplicate samples, and the calculated EC50 values are shown.
For orientation: In TR-FRET formats the signal depends on donor and acceptor labels being close together.

The target of the next assay is T2, PPARγ-LBD (Homo sapiens, UniProt P37231).
T2 sequence (P37231 203-477 isoform P37231-2): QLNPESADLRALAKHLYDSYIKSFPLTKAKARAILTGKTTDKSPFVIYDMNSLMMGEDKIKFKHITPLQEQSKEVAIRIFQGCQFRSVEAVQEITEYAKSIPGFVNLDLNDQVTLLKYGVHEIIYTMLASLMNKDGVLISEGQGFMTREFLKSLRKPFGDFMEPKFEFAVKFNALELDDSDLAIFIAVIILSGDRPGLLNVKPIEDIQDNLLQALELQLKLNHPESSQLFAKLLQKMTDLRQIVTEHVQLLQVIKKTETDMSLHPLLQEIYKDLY
The assay can be described thus: TR-FRET PGC1α coactivator recruitment assay. The conditions noted are these: PGC1α peptide, read-out: EC50, PGC1α recruitment to PPARγ-LBD. The assay is classed as biochemical. Also noted: PPARγ-LBD (amino acids 203–477 in isoform 1); made in house; host or cells: Rosetta (DE3) pLysS (E. coli). Here is the method: as §1, §2, §3

Another assay deals with T3, human PPARδ (Homo sapiens, UniProt Q03181).
T3 construct: expressed in transfected cells; host or cells: COS-7
T3 sequence (Q03181 211-439 limits assumed): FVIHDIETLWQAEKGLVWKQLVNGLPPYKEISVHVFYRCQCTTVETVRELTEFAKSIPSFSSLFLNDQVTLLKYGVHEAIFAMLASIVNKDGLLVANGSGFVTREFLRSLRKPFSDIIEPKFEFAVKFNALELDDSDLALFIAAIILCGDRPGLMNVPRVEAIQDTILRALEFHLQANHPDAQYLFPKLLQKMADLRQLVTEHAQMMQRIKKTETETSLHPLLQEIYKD
Description: Transactivation assay (GAL4–hPPARδ-LBD chimera, luciferase reporter, COS-7 cells). The format is cell-based. The conditions noted are these: for Emax: COS-7, read-out: Efficacy, PPARδ transactivation (% of the maximal response); for EC50: COS-7 cells, GAL4–hPPARδ-LBD. Here is the method: The pSG5-GAL–hPPARα/δ/γ plasmids express fusion proteins comprising the yeast transcription factor GAL4 DNA-binding domain and each of the human PPARα/δ/γ-LBDs. The MH100(UAS)×4-tk-Luc plasmid contains four copies of the MH100 GAL4 binding site and the Firefly luciferase gene. The cells were transfected with those plasmids and were treated with various PPAR ligands, and both Firefly and Renilla luciferase activities were measured using the Dual-Glo Luciferase Assay System (Promega, Madison, WI, USA) as described previously. […] GW1929 was purchased from Sigma-Aldrich (St. Louis, MO, USA).
For the undertaking of the comparison of the potency, efficacy, and selectivity of the five PPAR ligands (Figure 1A) against the PPAR subtypes, we evaluated their PPARα/δ/γ activation using three different methods: a cell-based transactivation assay, a coactivator recruitment assay, and a thermal stability assay, as we previously performed on three fibrates (namely, bezafibrate, fenofibric acid, and pemafibrate). The cell-based transactivation assay utilizing the Gal4–PPAR-LBD system is the most widely used method for the determination of PPAR activation by certain ligands, although their responses depend on the used cell types in which several coactivators with altered functions are differentially expressed.
Figure 1 LBD-mediated human PPARα/δ/γ transactivation by PPAR ligands. (A) Chemical structures of the five PPAR ligands used in this study. […] Data are presented as the mean ± standard error (SE) of three independent experiments with duplicate samples.
For orientation: Reporter assays use an easily measured gene product as a stand-in for the process of interest.

Molecules are shown by their SMILES.

Regarding `CSc1ccc(C(=O)/C=C/c2cc(C)c(OC(C)(C)C(=O)O)c(C)c2)cc1` [elafibranor], the “Efficacy, SRC1 recruitment to PPARα-LBD” value at PPARα-LBD (100% = 1 µM GW7647) is reported as 59.2%. The values for the EC50 on PPARα-LBD and at PPARγ-LBD were 4.95 µM and 15.5 µM, respectively. On human PPARδ, the Emax was found to be 14.8%.
Consider `O=C(O)CCCc1cc2cc(Cl)ccc2n1S(=O)(=O)c1ccc2ncsc2c1` [lanifibranor], for which the EC50 turned out to be 13.8 µM at PPARα-LBD, 4.65 µM on PPARγ-LBD and 0.398 µM on human PPARδ. At human PPARδ, the Emax was determined as 13.3%.
Consider `CCO[C@@H](Cc1ccc(OCCn2c(C)ccc2-c2ccc(SC)cc2)cc1)C(=O)O` [saroglitazar], for which the results for the EC50 on PPARα-LBD, on PPARγ-LBD and on human PPARδ were 1.04 µM, 1.03 µM and over 10 µM, respectively. The Emax at human PPARδ is 6%.
Taken in the same sequence, the figures for `CCO[C@H](COc1ccc(C(F)(F)F)cc1)CSc1ccc(OCC(=O)O)c(C)c1` [seladelpar] were over 1 µM, 19.4 µM, 0.0202 µM and 99.3%.

In general, EC50 refers to the concentration needed to bring the measured effect to its halfway point.

The values above are taken from paper PMC10451623 (Antioxidants, 2023).
